Test results reported in patent US11504349B2, “Composition for preventing or treating TNF-related diseases, containing novel derivative as active ingredient, and method for inhibiting TNF activity by using same” (ILAB, priority 2017, dated 2022).

How the values were obtained:
TNF [1] = target: T1, TNF (Homo sapiens, UniProt P01375); assay: TNF-neutralization bioassay: TNF-induced cell death of LM cells (MTT); type: cell-based; conditions: for inhibition at 50 µM: compound 50 μM, TNF 20 ng/ml, actinomycin D, LM cells, 24 hours
T1 sequence (P01375 77-233 limits assumed): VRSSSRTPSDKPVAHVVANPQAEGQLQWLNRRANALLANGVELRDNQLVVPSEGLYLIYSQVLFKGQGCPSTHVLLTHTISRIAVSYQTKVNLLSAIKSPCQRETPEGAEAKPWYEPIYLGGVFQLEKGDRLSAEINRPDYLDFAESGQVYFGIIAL
Procedure: (§1) First, the addition of recombinant TNF to mouse fibroblast LM cells induces cell death, and thus, by using the same, the TNF-neutralization bioassay was constructed. In other words, LM cells were pretreated with TNF (20 ng/ml) and the compounds synthesized in the above examples at various concentrations (5×10^4 cells/well), and a sensitizer actinomycin D ([…]) was added, and cultured in a CO2 incubator for 24 hours, and then the MTT assay was carried out. At this time, 10 μl of MTT (5 mg/ml stock) was added, reacted for 4 hours, and then dissolved in DMSO to measure the absorbance at 570 nm. First, the TNF cell death inhibition/neutralization action of TNF-target expected compounds at single concentration (50 or 10 μM) was measured. Second, IC50 values were determined by treating with the compounds having an excellent effect at different concentrations. The % inhibition of TNF was calculated using the following formula: % inhibition of TNF=(OD value of a group treated with TNF and compound−OD value of TNF treated group/(OD value of TNF untreated group−OD value of TNF treated group)×100.
(§2) IC50 values were statistically analyzed using Prism 6 (GraphPad) (IC50: 50% inhibitory concentration, CC50: 50% cytotoxic concentration).

TNF [2] = target: T1, TNF; assay: SPR (Biacore T200) direct binding to immobilized TNF; conditions: FIG. 2d
Procedure: The binding kinetics of TNF and 4-benzopyranone derivative compounds was measured by Surface Plasmon Resonance (SPR) method. First, based on the results of pH scouting (10 mM acetate buffer, pH 4.0, 4.5, 5.0, and 5.5), the appropriate buffer pH was determined, and then the recombinant TNF was immobilized on the CM5 chip (4000-5000 RU). In order to correct an effect of DMSO, a solvent correction standard was then prepared, and DMSO was added to the HBS-EP+ buffer (GE) in an amount of 5%. Then, the 4-benzopyranone derivative compounds were prepared depending on concentration, flowed into the chip (20 μl/min, 500 s), and dissolved (500 s), and the results of sensorgram were analyzed by a dedicated program to determine the affinity value (KD). At this time, the running buffer was HBS-EP+ buffer (GE), the regeneration buffer was 10 mM glycine (pH 2.5), and Biacore T200 (GE) was used as an analyzer.

biotinylated TNF = target: T2, biotinylated TNF (Homo sapiens, UniProt P01375); assay: Flow cytometry: binding of biotinylated TNF to Raw 264.7 cells; type: cell-based, mouse; conditions: compound 800, 200, 5 μM, FACS, FIG. 3a
T2 construct: purchased R&D Systems NFTAO
T2 sequence (P01375 77-233 limits assumed): as above
Procedure: First, macrophage Raw 264.7 cells were prepared (4×10^6 cells/ml), and the biotinylated TNF alone or in combination with the 4-benzopyranone derivative compound (800, 200, 5 μM) was added to the cells and reacted (30 min, 4° C.). 10 μl of avidin-FITC reagent was then added and reacted in the dark (30 min, 4° C.). After washing with RDF1 buffer, FACS analysis was carried out (BD Canto). Human TNF-alpha Biotinylated Fluorokine Flow Cytometry Kit (Cat #: NFTAO) of R&D Systems was used in the experiment.

[3] = Cytotoxicity (CC50) in LM cells, MTT assay; type: cell-based; conditions: mouse, LM cells (mouse fibroblasts); 50% cytotoxic concentration
Procedure: as §1, §2

DBA/1 mice = assay: CIA mouse model, alone and in combination with methotrexate; type: in vivo; conditions: Example 61 10 mpk PO once a day, MTX 5 mpk three times a week, to Day 73
Description: A 1:1 mixture of collagen type 2 and CFA was intradermally (ID) injected into the base of the tail of DBA/1 mice. Two weeks after the primary immunization, a 1:1 mixture of bovine collagen type 2 and IFA (incomplete Freund's adjuvant) was intradermally (ID) injected into the base of the tail to prepare the rheumatoid arthritis animal model. The thus prepared mice were divided into […], i.e., a positive control group (MTX 5 mpk treated group: 10 mice), a group treated with the compound of Example 61 alone (10 mpk treated group: 9 mice), a group treated with MTX and the compound of Example 61 (each 5 mpk and 10 mpk; 9 mice), and a group treated with vehicle (a group treated with 0.05% CMC diluted in distilled water; 15 mice). […]
The severity of arthritis was determined by ascertaining the mean score of arthritis according to the following standard score in the forefoot and hindfoot twice a week from Day 0 to Day 73 after the primary immunization: 0=normal foot, 1=inflammation and swelling of one toe, 2=inflammation and swelling of more than one toe, but not all of the toes have inflammation and swelling, or weak swelling of all toes, 3=inflammation and swelling of all toes, and 4=severe inflammation and swelling or occlusion of foot.

Row | Structure (SMILES) | inhibition at 50 µM (TNF [1]) | binding to TNF (TNF [2]) | inhibitory activity against TNF-cell binding (biotinylated TNF) | melting point | IC50 (TNF [1]; inhibition of TNF-induced LM cell death) | CC50 at 24 h [3] | therapeutic effect on arthritis (mean arthritis score) (DBA/1 mice)
1 | Cc1cccc(-c2oc3ccc(Br)cc3c(=O)c2C(=O)O)c1 [Example 30, 2-(3-methylphenyl)-3-carboxy-6-bromo-(4H)-4-benzopyranone] | 7.4% | did not bind to TNF | did not inhibit the cell binding of TNF at all | 208 to 210 °C |  |  | 
2 | O=C(O)c1c(-c2cc(F)cc(F)c2)oc2ccc(Br)cc2c1=O [Example 51, 2-(3,5-difluorophenyl)-3-carboxy-6-bromo-(4H)-4-benzopyranone] | 100% |  | moderate inhibitory activity | 216 to 218 °C | 4.5 µM | 13 µM | 
3 | CN(Cc1cnc2nc(N)nc(N)c2n1)c1ccc(C(=O)N[C@@H](CCC(=O)O)C(=O)O)cc1 [MTX, methotrexate, reference compound] |  |  |  |  |  |  | therapeutic effect on arthritis was shown
